{"source": "patent US7220720B2", "about": "“Melanin-concentrating hormone analogs” (Merk & Co., Inc., priority 2000, dated 2007)", "key": {"[1]": {"biological_target": "T1, human MCH receptor (Homo sapiens, UniProt Q99705)", "T1 sequence (Q99705 whole entry)": "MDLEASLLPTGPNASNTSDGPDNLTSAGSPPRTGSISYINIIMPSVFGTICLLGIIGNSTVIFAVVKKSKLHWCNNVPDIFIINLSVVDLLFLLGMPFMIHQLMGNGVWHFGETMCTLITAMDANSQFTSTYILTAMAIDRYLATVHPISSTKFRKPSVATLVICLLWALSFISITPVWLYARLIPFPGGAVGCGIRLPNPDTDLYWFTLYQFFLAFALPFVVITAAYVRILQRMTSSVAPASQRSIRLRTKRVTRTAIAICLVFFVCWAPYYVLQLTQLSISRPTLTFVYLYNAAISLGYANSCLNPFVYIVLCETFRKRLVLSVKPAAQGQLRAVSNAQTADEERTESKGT", "test": "Radiolabeled MCH-R binding assay: inhibition of [125I]-human MCH (Phe13, Tyr19 substituted) binding to cell membranes (filter or SPA format)", "parameters": "expressed in transfected cells", "procedure": "Cell membranes were prepared on ice. Each T-75 flask was rinsed twice with 10 ml of Enzyme-free Cell Dissociation Buffer (Specialty Media, Lavallette, N.J.), and the cell monolayer was detached in an additional 10 ml of Enzyme-free Cell Dissociation Buffer by incubation at room temperature for 10 minutes. Dissociated cells were centrifuged (500×g for 10 minutes at 4° C.), resuspended in 5 ml homogenization buffer (10 mM Tris-HCl, pH 7.4, 0.01 mM Pefabloc, 10 μM phosphoramidon, 40 μg/ml bacitracin) and then homogenized using a glass homogenizer (10–15 strokes). The homogenate was centrifuged for 10 minutes (1,000×g at 4° C.). The resulting supernatant was then centrifuged at 38,700×g for 15 minutes at 4° C. Pelleted membranes were resuspended (passed through 25 gauge needle 5 times), snap-frozen on liquid nitrogen, and stored at −80° C. until use.\nBinding was performed in a 96-well filter assay or Scintillation Proximity Assay (SPA)-based format using cell membranes from a stable CHO or HEK-293 cell line expressing the MCH receptor. For the filter assay, reactions were performed at 20° C. for 1 hour in a total volume of 0.2 ml containing: 0.05 ml of membrane suspension (˜3 μg protein), 0.02 ml of [^125I]-human MCH (Phe^13, Tyr^19 substituted; 30 pM), 0.01 ml of competitor and 0.12 ml of binding buffer (50 mM Tris-HCl, pH 7.4, 10 mM MgCl2, 2 mM EDTA, 200 μg/ml bacitracin, 1 μM phosphoramidon).\nBound radioligand was separated by rapid vacuum filtration (Packard Filtermate 96-well cell harvester) through GF/C filters pretreated for 1 hour with 1% polyethylenimine. After application of the membrane suspension to the filter, the filters were washed 3 times with 3 ml each of ice-cold 50 mM Tris-HCl, pH 7.4, 10 mM MgCl2, 2 mM EDTA, 0.04% Tween 20 and the bound radioactivity on the filters was quantitated by scintillation counting (TopCount device).\nFor the SPA-based assay, WGA-PVT beads (NEN Life Sciences Products) were resuspended in Dulbecco's PBS with calcium and magnesium (500 mg beads in 4 ml PBS). For each 96-well assay plate, 0.18 ml of beads was pre-coated with MCH receptor by mixing with 0.2 ml MCH receptor CHO cell membranes (˜0.2–4 mg protein) and 1.5 ml SPA assay buffer (50 mM Tris-HCl, pH 7.4, 10 mM MgCl2, 2 mM EDTA, 0.1% BSA, 12% glycerol). The suspension was mixed gently for 20 minutes, 12.3 ml of assay buffer and protease inhibitors were added (final concentration given): 2 μg/ml leupeptin, 10 μM phosphoramidon, 40 μg/ml bacitracin, 5 μg/ml aprotinin, 0.1 mM Pefabloc.\nCoated beads were kept on ice until use. For each well, 0.145 ml of beads were added to Optiplate assay plates (Packard 6005190), followed by 0.002–0.004 ml of competitor and 0.05 ml of [^125I]-human MCH (Phe^13, Tyr^19 substituted; 30 pM). Binding reactions were allowed to proceed at room temperature for 3 hours. Quantitation was performed by scintillation counting (TopCount device)."}, "[2]": {"biological_target": "T1, human MCH receptor", "test": "Aequorin bioluminescence functional assay in 293-AEQ17 cells transfected with human MCH receptor", "format": "cell-based", "parameters": "expressed in transfected cells; host or cells: 293-AEQ17 (aequorin-expressing HEK-293 reporter line), transient lipofectamine transfection, pcDNA-3 vector; Activity Activation %: concentration or dose not given beside the values", "details": "for % Activation at 10 μM: Table 1, aequorin functional assay", "procedure": "The aequorin bioluminescence assay is a reliable test for measuring the activity of G protein-coupled receptors that couple through the Gα protein subunit family consisting of Gq and Gll and leads to the activation of phospholipase C, mobilization of intracellular calcium and activation of protein kinase C.\nFollowing approximately 40 hours of expression the apo-aequorin in the cells was charged for 4 hours with coelenterazine (10 μM) under reducing conditions (300 μM reduced glutathione) in ECB buffer (140 mM NaCl, 20 mM KCl, 20 mM HEPES-NaOH [pH=7.4], 5 mM glucose, 1 mM MgCl2, 1 mM CaCl2, 0.1 mg/ml bovine serum albumin).\nThe cells were harvested, washed once in ECB medium and resuspended to 500,000 cells/ml. 100 μl of cell suspension (corresponding to 5×10^4 cells) was then injected into the test plate containing MCH or MCH analogs, and the integrated light emission was recorded over 30 seconds, in 0.5 second units. 20 μL of lysis buffer (0.1% final Triton X-100 concentration) was then injected and the integrated light emission recorded over 10 seconds, in 0.5 second units. The “fractional response” values for each well were calculated by taking the ratio of the integrated response to the initial challenge to the total integrated luminescence including the Triton X-100 lysis response."}, "[3]": {"details": "Table 1, SPA based assay, read-out: Binding Assay IC50"}, "[4]": {"details": "Table 5, position 10 modification, read-out: Activity IC50"}, "[5]": {"details": "Table 5, position 10 modification"}, "[6]": {"details": "Table 3, N-methyl-amino acid analogs"}, "[7]": {"details": "Table 6, position 13 modification"}, "[8]": {"details": "Table 7, combinations and position 8"}}, "note": "Where two headings read alike, the source gives them in different places. Where a SMILES comes first, the peptide text is derived from it. Bridges are numbered along the chain shown (N, C = ends)."}
{"compound": "CSCC[C@@H]1NC(=O)[C@@H](NC(=O)[C@H](CCCNC(=N)N)NC(=O)[C@H](CC(C)C)NC(=O)[C@H](CCSC)NC(=O)[C@H](CC(=O)O)NC(=O)[C@H](Cc2ccccc2)NC(=O)[C@@H](N)CC(=O)O)CSSC[C@@H](C(N)=O)NC(=O)[C@@H]2CCCN2C(=O)[C@H](CCCNC(=N)N)NC(=O)[C@H](Cc2ccc(O)cc2)NC(=O)[C@H](C(C)C)NC(=O)[C@H](CCCNC(=N)N)NC(=O)CNC(=O)[C@H](CC(C)C)NC1=O", "note": "[compound 10] (H-DFDMLRCMLGRVYRPC-NH2; disulfide 7-16)", "values": [{"measurement": "IC50", "setting": "[1]; [3]", "result": 0.3, "unit": "nM"}, {"measurement": "% Activation at 10 μM", "setting": "[2]", "result": 99, "unit": "%"}]}
{"compound": "CSCC[C@@H]1NC(=O)[C@@H](NC(=O)[C@H](CCCNC(=N)N)NC(C)=O)CSSC[C@@H](C(N)=O)NC(=O)[C@@H]2CCCN2C(=O)[C@H](CCCNC(=N)N)NC(=O)[C@H](Cc2ccc(O)cc2)NC(=O)[C@H](C(C)C)NC(=O)[C@H](CCCNC(=N)N)NC(=O)[C@@H]2CCCN2C(=O)[C@H](CC(C)C)NC1=O", "note": "[compound 50]", "values": [{"measurement": "IC50", "setting": "[1]; [4]", "result": 700, "unit": "nM"}, {"measurement": "Activity Activation %", "setting": "[2]; [5]", "result": 4, "unit": "%"}]}
{"compound": "CSCC[C@@H]1NC(=O)[C@@H](NC(=O)[C@H](CCCNC(=N)N)NC(C)=O)CSSC[C@@H](C(N)=O)NC(=O)[C@@H]2CCCN2C(=O)[C@H](CCCNC(=N)N)NC(=O)[C@H](Cc2ccc(O)cc2)NC(=O)[C@H](C(C)C)NC(=O)[C@H](CCCNC(=N)N)NC(=O)[C@H](CCCCN)NC(=O)[C@H](CC(C)C)NC1=O", "note": "[compound 53]", "values": [{"measurement": "IC50", "setting": "[1]; [4]", "result": 110, "unit": "nM"}, {"measurement": "Activity Activation %", "setting": "[2]; [5]", "result": 25, "unit": "%"}]}
{"compound": "CSCC[C@@H]1NC(=O)[C@@H](NC(=O)[C@H](CCCNC(=N)N)NC(C)=O)CSSC[C@@H](C(N)=O)NC(=O)[C@@H]2CCCN2C(=O)[C@H](CCCNC(=N)N)NC(=O)[C@H](Cc2ccc(O)cc2)NC(=O)[C@H](C(C)C)NC(=O)[C@H](CCCNC(=N)N)NC(=O)[C@H](CCC(=O)O)NC(=O)[C@H](CC(C)C)NC1=O", "note": "[compound 54]", "values": [{"measurement": "IC50", "setting": "[1]; [4]", "result": 190, "unit": "nM"}, {"measurement": "Activity Activation %", "setting": "[2]; [5]", "result": 12, "unit": "%"}]}
{"compound": "CSCC[C@@H]1NC(=O)[C@@H](NC(=O)[C@H](CCCNC(=N)N)NC(C)=O)CSSC[C@@H](C(=O)N[C@@H](Cc2ccc(O)cc2)C(N)=O)NC(=O)[C@@H]2CCCN2C(=O)[C@H](CCCNC(=N)N)NC(=O)[C@H](Cc2ccccc2)NC(=O)[C@H](C(C)C)NC(=O)[C@H](CCCNC(=N)N)NC(=O)CNC(=O)[C@H](CC(C)C)NC1=O", "note": "[compound 8] (Ac-RCMLGRVFRPCY-NH2; disulfide 2-11)", "values": [{"measurement": "IC50", "setting": "[1]; [3]", "result": 0.16, "unit": "nM"}, {"measurement": "% Activation at 10 μM", "setting": "[2]", "result": 123, "unit": "%"}]}
{"compound": "CSCC[C@@H]1NC(=O)[C@@H](NC(=O)[C@H](CCCNC(=N)N)NC(C)=O)CSSC[C@@H](C(N)=O)NC(=O)[C@@H]2CCCN2C(=O)[C@H](CCCNC(=N)N)NC(=O)[C@H](Cc2ccc(O)cc2)NC(=O)[C@H](C(C)C)NC(=O)[C@H](CCCNC(=N)N)NC(=O)CNC(=O)[C@H](CC(C)C)NC1=O", "note": "[compound 7]", "values": [{"measurement": "IC50", "setting": "[1]; Table 2, D-amino acid analogs, read-out: Activity IC50", "result": 0.5, "unit": "nM"}, {"measurement": "IC50", "setting": "[1]; Table 3, N-methyl-amino acid analogs, read-out: Activity IC50", "result": 1.4, "unit": "nM"}, {"measurement": "IC50", "setting": "[1]; [4]", "result": 0.5, "unit": "nM"}, {"measurement": "% Activation at 10 μM", "setting": "[2]", "result": 123, "unit": "%"}, {"measurement": "Activity Activation %", "setting": "[2]; Table 2, D-amino acid analogs", "result": 99, "unit": "%"}, {"measurement": "EC50", "setting": "[2]; Table 2, D-amino acid analogs", "result": 20, "unit": "nM"}, {"measurement": "Activity Activation %", "setting": "[2]; [6]", "result": 99, "unit": "%"}, {"measurement": "EC50", "setting": "[2]; [6]", "result": 20, "unit": "nM"}, {"measurement": "Activity Activation %", "setting": "[2]; Table 4, position 6 modification", "result": 99, "unit": "%"}, {"measurement": "Activity Activation %", "setting": "[2]; [5]", "result": 99, "unit": "%"}, {"measurement": "EC50", "setting": "[2]; [5]", "result": 20, "unit": "nM"}, {"measurement": "Activity Activation %", "setting": "[2]; [7]", "result": 99, "unit": "%"}, {"measurement": "EC50", "setting": "[2]; [7]", "result": 20, "unit": "nM"}, {"measurement": "Activity Activation %", "setting": "[2]; [8]", "result": 99, "unit": "%"}, {"measurement": "EC50", "setting": "[2]; [8]", "result": 20, "unit": "nM"}]}
